According to US7910588B2, “5-HT7 receptor antagonists” (Eli Lilly and Company, priority 2007, dated 2011):
Where “and” joins values, the source holds several entries; their conditions need not be identical. Equal values may be shown once.

Legend:
[1] = target: T1, 5-HT2B (Homo sapiens, UniProt P41595); assay: Radioligand binding assay, 5-HT2B
T1 construct: expressed in transfected cells
Method: (§1) [^3H] […] The reactions are incubated at room temperature for 3 hr. and then counted in a Trilux Microbeta™ scintillation counter to detect receptor-bound radioligand. Binding data are analyzed by computer-assisted 4 parameter fit analysis (ID Business Solutions Ltd, Guildford, Surrey, UK). […]
(§2) Affinity for other serotonin receptor subtypes as well as for alpha 1 & 2 adrenergic receptors can readily be determined by modification of the above described radioligand receptor binding assay using membranes derived from cells stably expressing the desired receptor subtype including the 5-HT1A, 5-HT1B, and 5-HT1D subtypes, as well as the 5-HT2A, 5-HT2B, 5-HT2C, 5-HT4, 5-HT7, and 5-HT6 receptor subtypes. […]

[2] = target: T2, 5-HT7 receptor (Homo sapiens, UniProt P34969); assay: 5-HT7 receptor affinity: [3H]5-HT radioligand binding assay; settings: membranes of AV-12 cells, 1 nM [3H]5-HT
T2 construct: expressed in transfected cells
T2 sequence (P34969 whole entry): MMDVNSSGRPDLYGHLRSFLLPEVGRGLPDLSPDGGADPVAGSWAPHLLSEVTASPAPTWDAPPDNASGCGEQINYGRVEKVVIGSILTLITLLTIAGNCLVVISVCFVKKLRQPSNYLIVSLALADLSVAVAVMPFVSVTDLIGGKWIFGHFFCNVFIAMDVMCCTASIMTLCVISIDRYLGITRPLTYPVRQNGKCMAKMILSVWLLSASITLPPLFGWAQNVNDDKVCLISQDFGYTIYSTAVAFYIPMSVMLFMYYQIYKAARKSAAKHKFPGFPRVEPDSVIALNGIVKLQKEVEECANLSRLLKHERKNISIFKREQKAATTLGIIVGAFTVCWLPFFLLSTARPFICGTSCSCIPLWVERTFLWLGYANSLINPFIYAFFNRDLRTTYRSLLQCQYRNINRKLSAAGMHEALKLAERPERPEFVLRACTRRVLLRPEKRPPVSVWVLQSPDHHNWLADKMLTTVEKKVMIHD
Method: Membranes for affinity and antagonist activity assays are prepared essentially as follows. AV-12 cells, stably expressing the 5-HT7 receptor, are grown as a monolayer in 5×T-150 flasks in DMEM/F12 (3:1) 5% FBS, 20 mM HEPES, […] geneticin, 50 mg/mL tobramycin. After growing to 90% confluence the media is removed and replaced with Hybritech media containing 2% horse serum, […] dextran sulfate, 1 mg/mL nucellin, 1 mg/mL human transferrin (partially iron saturated), 50 mg/mL tobramycin, 20 mM HEPES, […] geneticin, 0.04% pluronic F68. […]
To prepare membranes, the above pellets are resuspended in ice-cold Tris buffer (20 mM Tris HCl, pH 7.4 at 23° C., 5 mM EDTA) and homogenized with a Wheaton tissue grinder. […] Protein concentrations are determined by the method of Bradford. […]

[3] = target: T3, 5-HT5 (Homo sapiens, UniProt P47898); assay: Radioligand binding assay, 5-HT5
T3 construct: expressed in transfected cells
T3 sequence (P47898 whole entry): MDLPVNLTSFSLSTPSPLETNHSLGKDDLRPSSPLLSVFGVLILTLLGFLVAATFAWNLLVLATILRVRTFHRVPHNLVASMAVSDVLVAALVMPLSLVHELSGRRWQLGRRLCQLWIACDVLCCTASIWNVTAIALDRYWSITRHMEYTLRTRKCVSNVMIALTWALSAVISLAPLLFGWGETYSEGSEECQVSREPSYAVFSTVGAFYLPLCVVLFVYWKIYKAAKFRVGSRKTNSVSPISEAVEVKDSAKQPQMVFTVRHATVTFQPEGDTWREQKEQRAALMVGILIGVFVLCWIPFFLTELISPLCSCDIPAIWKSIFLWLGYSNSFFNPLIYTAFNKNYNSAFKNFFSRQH
Method: as §1, §2

[4] = target: T4, 5-HT6 (Homo sapiens, UniProt P50406); assay: Radioligand binding assay, 5-HT6
T4 construct: expressed in transfected cells
T4 sequence (P50406 whole entry, species assumed): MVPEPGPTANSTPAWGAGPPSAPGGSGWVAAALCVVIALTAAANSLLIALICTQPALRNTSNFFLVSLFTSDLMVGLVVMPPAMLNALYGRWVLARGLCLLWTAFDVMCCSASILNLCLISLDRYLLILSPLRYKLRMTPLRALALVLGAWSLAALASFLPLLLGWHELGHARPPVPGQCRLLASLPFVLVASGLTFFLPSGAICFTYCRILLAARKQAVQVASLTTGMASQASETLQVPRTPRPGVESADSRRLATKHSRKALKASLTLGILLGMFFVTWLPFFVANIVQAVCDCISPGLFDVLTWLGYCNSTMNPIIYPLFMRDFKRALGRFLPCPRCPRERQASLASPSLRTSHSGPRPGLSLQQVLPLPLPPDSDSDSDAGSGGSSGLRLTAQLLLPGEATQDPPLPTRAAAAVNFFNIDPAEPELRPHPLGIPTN
Method: as §1, §2

[5] = target: T5, 5-HT1D (Homo sapiens, UniProt P28221); assay: Radioligand binding assay, 5-HT1D
T5 construct: expressed in transfected cells
T5 sequence (P28221 whole entry, species assumed): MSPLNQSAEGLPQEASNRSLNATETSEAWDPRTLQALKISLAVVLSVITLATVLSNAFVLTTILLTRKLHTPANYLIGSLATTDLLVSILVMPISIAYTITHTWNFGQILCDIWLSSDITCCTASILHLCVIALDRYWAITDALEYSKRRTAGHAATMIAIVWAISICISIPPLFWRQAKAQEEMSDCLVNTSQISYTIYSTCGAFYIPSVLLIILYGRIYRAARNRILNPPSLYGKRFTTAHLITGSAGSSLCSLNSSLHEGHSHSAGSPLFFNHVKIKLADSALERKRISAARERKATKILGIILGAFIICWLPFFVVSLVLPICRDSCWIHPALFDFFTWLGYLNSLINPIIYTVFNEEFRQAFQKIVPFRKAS
Method: as §1, §2

T1 sequence (P41595 whole entry, species assumed): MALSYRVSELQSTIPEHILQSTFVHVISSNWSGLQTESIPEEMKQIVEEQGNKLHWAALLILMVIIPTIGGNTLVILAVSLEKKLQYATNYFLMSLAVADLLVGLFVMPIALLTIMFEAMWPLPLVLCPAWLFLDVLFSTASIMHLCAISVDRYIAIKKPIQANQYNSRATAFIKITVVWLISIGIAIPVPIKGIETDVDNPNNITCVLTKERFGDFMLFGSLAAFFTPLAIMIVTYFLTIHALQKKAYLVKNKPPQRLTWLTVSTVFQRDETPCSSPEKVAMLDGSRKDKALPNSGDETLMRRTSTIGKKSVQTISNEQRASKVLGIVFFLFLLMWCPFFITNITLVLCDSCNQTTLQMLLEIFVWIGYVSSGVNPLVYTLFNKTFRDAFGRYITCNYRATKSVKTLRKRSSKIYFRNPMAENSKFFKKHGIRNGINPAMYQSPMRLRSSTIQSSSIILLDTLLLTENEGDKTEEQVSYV

For `CCn1ncc(CN2CCN(c3cccnc3N3CCC(O)CC3)CC2)c1C.Cl` [Example 1, 3′-[4-(1-Ethyl-5-methyl-1H-pyrazol-4-ylmethyl)-piperazin-1-yl]-3,4,5,6-tetrahydro-2H-[1,2]bipyridinyl-4-ol hydrochloride], the Ki [1] was over 6.81 µM, the Ki [2] was ~0.0162 µM and 0.0162 µM and the Ki [3] was 4.55 µM. The Ki [4] was over 5.83 µM and the Ki [5] was 1.84 µM.
